From the NIST ThermoML archive (doi:10.1016/j.tca.2016.09.005)

Assay: xn = mol fraction of the nth substance listed
Details: 100 kPa, Liquid; for speed of sound: Frequency=3 MHz, Sing-around technique in a fixed-path interferometer; for mass density: Vibrating tube method

OCCCO [propan-1,3-diol] + O
Details | mass density, 283.15 K [kg/m3] | mass density, 293.15 K [kg/m3] | mass density, 303.15 K [kg/m3] | mass density, 313.15 K [kg/m3] | speed of sound, 283.15 K [m/s] | speed of sound, 293.15 K [m/s] | speed of sound, 303.15 K [m/s] | speed of sound, 313.15 K [m/s]
x2 = 0 | 1058.85 | 1052.61 | 1046.36 | 1040.07 | 1659.5 | 1636.3 | 1613.6 | 1591.1
x2 = 0.1022 | 1059.27 | 1053.04 | 1046.79 | 1040.48 | 1672.9 | 1650.1 | 1627.2 | 1605
x2 = 0.201 | 1059.47 | 1053.26 | 1047.01 | 1040.68 | 1686.6 | 1664 | 1641.4 | 1618.9
x2 = 0.2987 | 1059.49 | 1053.3 | 1047.05 | 1040.7 | 1702 | 1679.4 | 1656.8 | 1634.1
x2 = 0.3998 | 1059.07 | 1052.91 | 1046.67 | 1040.3 | 1717.3 | 1695.2 | 1672.8 | 1650.2
x2 = 0.4997 | 1057.91 | 1051.82 | 1045.61 | 1039.25 | 1732 | 1710.5 | 1688.7 | 1666.4
x2 = 0.5997 | 1055.48 | 1049.54 | 1043.42 | 1037.1 | 1742.7 | 1722.7 | 1701.9 | 1680.5
x2 = 0.6999 | 1050.47 | 1044.85 | 1039.01 | 1032.92 | 1742 | 1725.1 | 1707.1 | 1688.1
x2 = 0.7999 | 1041.86 | 1036.89 | 1031.59 | 1025.94 | 1718.2 | 1707.4 | 1695 | 1680.9
x2 = 0.8997 | 1025.27 | 1021.75 | 1017.64 | 1012.95 | 1637.8 | 1641.2 | 1641.6 | 1639

OCCCO [propan-1,3-diol] + CO
Details | mass density, 283.15 K [kg/m3] | mass density, 293.15 K [kg/m3] | mass density, 303.15 K [kg/m3] | mass density, 313.15 K [kg/m3] | speed of sound, 283.15 K [m/s] | speed of sound, 293.15 K [m/s] | speed of sound, 303.15 K [m/s] | speed of sound, 313.15 K [m/s]
x2 = 0 | 1058.85 | 1052.61 | 1046.36 | 1040.07 | 1659.5 | 1636.3 | 1613.6 | 1591.1
x2 = 0.05 | 1052.58 | 1046.29 | 1039.98 | 1033.62 | 1645.8 | 1622.5 | 1599.5 | 1576.8
x2 = 0.0996 | 1045.92 | 1039.56 | 1033.18 | 1026.76 | 1629.2 | 1605.8 | 1582.6 | 1559.7
x2 = 0.1503 | 1038.75 | 1032.32 | 1025.88 | 1019.37 | 1613.8 | 1590.1 | 1566.8 | 1543.7
x2 = 0.2 | 1031.38 | 1024.87 | 1018.34 | 1011.73 | 1596.8 | 1572.8 | 1549.2 | 1525.8
x2 = 0.2502 | 1023.44 | 1016.87 | 1010.26 | 1003.55 | 1578.8 | 1554.7 | 1530.8 | 1507.1
x2 = 0.2998 | 1015.08 | 1008.41 | 1001.72 | 994.98 | 1560.7 | 1536.1 | 1511.9 | 1487.9
x2 = 0.3491 | 1006.18 | 999.42 | 992.64 | 985.81 | 1540.2 | 1515.4 | 1490.9 | 1466.6
x2 = 0.3998 | 996.52 | 989.65 | 982.76 | 975.82 | 1519.5 | 1494.2 | 1469.3 | 1444.7
x2 = 0.4497 | 986.31 | 979.34 | 972.34 | 965.29 | 1497 | 1471.6 | 1446.3 | 1421.4
x2 = 0.5 | 975.38 | 968.29 | 961.17 | 953.99 | 1474 | 1448 | 1422.3 | 1397
x2 = 0.5501 | 963.77 | 956.54 | 949.29 | 941.97 | 1450.2 | 1423.8 | 1397.7 | 1371.9
x2 = 0.5994 | 951.07 | 943.69 | 936.28 | 928.82 | 1423.3 | 1396.4 | 1369.7 | 1343.4
x2 = 0.6501 | 936.86 | 929.32 | 921.74 | 914.15 | 1394.9 | 1367.3 | 1340.1 | 1313.3
x2 = 0.6998 | 922.43 | 914.7 | 906.94 | 899.12 | 1366.9 | 1338.6 | 1310.7 | 1283.3
x2 = 0.7499 | 906.27 | 898.33 | 890.37 | 882.34 | 1336 | 1307.1 | 1278.5 | 1250.5
x2 = 0.8 | 889.44 | 881.29 | 873.11 | 864.86 | 1305 | 1275.3 | 1246.1 | 1217.4
x2 = 0.8501 | 869.9 | 861.5 | 853.06 | 844.55 | 1269.1 | 1238.8 | 1208.7 | 1179.2
x2 = 0.9 | 849.27 | 840.58 | 831.86 | 823.05 | 1233.7 | 1202.3 | 1171.3 | 1140.9
x2 = 0.9501 | 826.76 | 817.77 | 808.72 | 799.59 | 1196 | 1164 | 1132.1 | 1100.8
